Measurements reported in ChEMBL document CHEMBL2074268, “Cloning of mouse prostaglandin transporter PGT cDNA: species-specific substrate affinities” (Am J Physiol, 1999).

Legend:
Assay type in all cases: functional, cell-based
[1] = target: Solute carrier organic anion transporter family member 2A1 (Homo sapiens, UniProt Q92959); assay: (§1) TP_TRANSPORTER: inhibition of PGE2 uptake in PGT-expressing HeLa cells
[2] = target: Solute carrier organic anion transporter family member 2A1 (Mus musculus, UniProt Q9EPT5); assay: as §1
[3] = target: Solute carrier organic anion transporter family member 2A1 (Rattus norvegicus, UniProt Q00910); assay: as §1

Chain of Solute carrier organic anion transporter family member 2A1 (Mus musculus, UniProt Q9EPT5) (Q9EPT5 whole entry): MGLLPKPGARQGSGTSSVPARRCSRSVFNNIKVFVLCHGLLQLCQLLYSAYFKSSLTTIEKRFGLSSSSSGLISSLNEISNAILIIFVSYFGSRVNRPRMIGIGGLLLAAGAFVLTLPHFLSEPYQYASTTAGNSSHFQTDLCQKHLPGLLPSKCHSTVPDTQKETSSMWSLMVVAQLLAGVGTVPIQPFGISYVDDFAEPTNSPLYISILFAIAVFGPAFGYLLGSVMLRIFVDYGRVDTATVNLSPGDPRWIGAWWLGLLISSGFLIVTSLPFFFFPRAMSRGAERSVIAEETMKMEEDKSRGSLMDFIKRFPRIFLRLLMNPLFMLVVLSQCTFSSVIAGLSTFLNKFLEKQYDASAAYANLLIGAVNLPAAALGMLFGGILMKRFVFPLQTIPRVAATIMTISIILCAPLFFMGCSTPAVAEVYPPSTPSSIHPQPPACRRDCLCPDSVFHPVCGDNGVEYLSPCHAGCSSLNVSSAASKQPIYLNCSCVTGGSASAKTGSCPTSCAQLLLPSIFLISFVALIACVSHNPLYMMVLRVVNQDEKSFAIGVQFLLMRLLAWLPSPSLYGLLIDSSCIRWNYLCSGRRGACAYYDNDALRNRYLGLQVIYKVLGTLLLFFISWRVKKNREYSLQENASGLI

| Ki [1] | Ki [2] | Ki [3] | Compound |
| --- | --- | --- | --- |
| 23 nM | 104 nM | 45 nM | CCCCC[C@H](O)/C=C/[C@@H]1[C@@H](C/C=C\CCCC(=O)O)[C@@H](O)C[C@H]1O [DINOPROST] |
| 38 nM | 98 nM | 45 nM | CCCCC[C@H](O)/C=C/[C@H]1C(=O)C[C@H](O)[C@@H]1C/C=C\CCCC(=O)O [PROSTAGLANDIN D2] |
